Measured values reported in PubChem BioAssay (NCI).
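GI50: concentration for 50% inhibition of growth. The concentration for full growth arrest is given as TGI.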

Columns and labels:
Experiment in all cases: NCI-60 cell line screen, 384-well format
K-562 leukemia = system: K-562 leukemia
HT29 colon = system: HT29 colon
OVCAR-5 ovarian = system: OVCAR-5 ovarian
OVCAR-4 ovarian = system: OVCAR-4 ovarian
SNB-75 CNS = system: SNB-75 CNS
SK-MEL-5 melanoma = system: SK-MEL-5 melanoma
EKVX NSCLC = system: EKVX NSCLC
NCI-H322M lung = system: NCI-H322M lung
SK-MEL-2 melanoma = system: SK-MEL-2 melanoma
UACC-257 melanoma = system: UACC-257 melanoma
T-47D breast = system: T-47D breast
ACHN renal = system: ACHN renal
OVCAR-3 ovarian = system: OVCAR-3 ovarian

Structure (SMILES) | GI50 (K-562 leukemia) | TGI (K-562 leukemia) | GI50 (HT29 colon) | TGI (HT29 colon) | GI50 (OVCAR-5 ovarian) | TGI (OVCAR-5 ovarian) | GI50 (OVCAR-4 ovarian) | TGI (OVCAR-4 ovarian) | GI50 (SNB-75 CNS) | TGI (SNB-75 CNS) | GI50 (SK-MEL-5 melanoma) | TGI (SK-MEL-5 melanoma) | GI50 (EKVX NSCLC) | TGI (EKVX NSCLC) | GI50 (NCI-H322M lung) | TGI (NCI-H322M lung) | GI50 (SK-MEL-2 melanoma) | TGI (SK-MEL-2 melanoma) | GI50 (UACC-257 melanoma) | TGI (UACC-257 melanoma) | other results
CN1CCN(c2ccc(-c3cccc(CN4CCOCC4)c3)cc2NC(=O)c2c[nH]c(=O)cc2C(F)(F)F)CC1 | 12.3 µM | 25.3 µM | 14.2 µM | 32 µM | 40.9 µM | > 100 µM | 50.4 µM | > 100 µM | 22.2 µM | > 68.3 µM | 13.6 µM | 26.6 µM | 33.5 µM | > 100 µM | 53.3 µM | > 100 µM | 20.9 µM | 43.3 µM | 15.3 µM | 28.7 µM | GI50 (T-47D breast): 23.1 µM; TGI (T-47D breast): > 88.9 µM; GI50 (ACHN renal): 37.9 µM; TGI (ACHN renal): > 100 µM; GI50 (OVCAR-3 ovarian): 18.9 µM; TGI (OVCAR-3 ovarian): > 74.4 µM
c1ccc2c(NCCCN3CCN(CCCNc4c5ccccc5nc5ccccc45)CC3)c3ccccc3nc2c1 | 1.11 µM | 3.6 µM | 0.339 µM | 1.53 µM | 0.378 µM | 2.46 µM | 0.446 µM | 1.22 µM | 0.361 µM | 1.41 µM | 1.01 µM | 2.24 µM | 1.33 µM | 3.95 µM | 0.277 µM | 1.38 µM | 0.261 µM | 0.434 µM | 1.39 µM | 2.7 µM | GI50 (T-47D breast): 1.1 µM; TGI (T-47D breast): 3.61 µM; GI50 (ACHN renal): 0.345 µM; TGI (ACHN renal): 2.24 µM; GI50 (OVCAR-3 ovarian): 0.651 µM; TGI (OVCAR-3 ovarian): 2.12 µM
